Laboratory results: patent US11780830B2, “Triazolone derivatives or salts thereof and pharmaceutical compositions comprising the same” (YUHAN CORPORATION, priority 2018, dated 2023)
Counter-ions that a name gives are not always drawn.

Experiments:
Assay type in all cases: biochemical
[1] = target: T1, recombinant human DAO (diamine oxidase) (Homo sapiens, UniProt P19801); test: Activity on recombinant human DAO, method similar to the VAP-1 assay; settings: substrate 1 mM putrescine; read-out: Inhibitory Activity (IC50, nM) DAO
T1 construct: purchased R&D systems
T1 sequence (P19801 20-751): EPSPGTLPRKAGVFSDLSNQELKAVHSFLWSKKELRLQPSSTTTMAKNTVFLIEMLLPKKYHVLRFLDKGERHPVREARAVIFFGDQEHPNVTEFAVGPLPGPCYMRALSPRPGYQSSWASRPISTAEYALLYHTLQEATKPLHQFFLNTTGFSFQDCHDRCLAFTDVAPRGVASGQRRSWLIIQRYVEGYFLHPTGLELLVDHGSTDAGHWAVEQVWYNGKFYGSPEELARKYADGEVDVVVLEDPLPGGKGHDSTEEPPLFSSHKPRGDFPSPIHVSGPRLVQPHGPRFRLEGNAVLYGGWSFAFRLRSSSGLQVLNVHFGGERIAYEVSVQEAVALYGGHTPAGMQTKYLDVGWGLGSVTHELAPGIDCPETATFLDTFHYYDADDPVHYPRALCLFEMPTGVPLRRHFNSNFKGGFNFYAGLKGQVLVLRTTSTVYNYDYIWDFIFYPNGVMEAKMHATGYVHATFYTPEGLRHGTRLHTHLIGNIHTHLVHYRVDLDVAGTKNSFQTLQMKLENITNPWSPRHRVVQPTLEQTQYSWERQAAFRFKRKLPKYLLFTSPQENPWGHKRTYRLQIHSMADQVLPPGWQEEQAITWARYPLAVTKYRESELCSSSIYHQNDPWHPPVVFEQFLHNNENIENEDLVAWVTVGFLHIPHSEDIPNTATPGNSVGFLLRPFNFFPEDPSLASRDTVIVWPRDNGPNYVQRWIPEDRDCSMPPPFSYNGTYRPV
Method in brief: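 Inhibition of recombinant human diamine oxidase (DAO, R&D systems) was assessed by the same approach as the VAP-1 assay, using 1 mM putrescine as substrate. Hydrogen peroxide formed was detected through an HRP-coupled Amplex Red reaction yielding fluorescent resorufin, read at 544 nm excitation and 590 nm emission. IC50 values came from four-parameter logistic fitting in GraphPad Prism.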

recombinant human VAP-1 = target: T2, recombinant human VAP-1 (Homo sapiens, UniProt Q16853); test: Activity on recombinant human VAP-1, HRP-coupled Amplex Red hydrogen peroxide assay; settings: substrate 1 mM benzylamine; compound incubated with enzyme at 37° C. for 30 minutes; pH 7.4; read-out: Inhibitory Activity (IC50, nM) human VAP-1
T2 construct: purchased R&D systems
T2 sequence (Q16853 1-763): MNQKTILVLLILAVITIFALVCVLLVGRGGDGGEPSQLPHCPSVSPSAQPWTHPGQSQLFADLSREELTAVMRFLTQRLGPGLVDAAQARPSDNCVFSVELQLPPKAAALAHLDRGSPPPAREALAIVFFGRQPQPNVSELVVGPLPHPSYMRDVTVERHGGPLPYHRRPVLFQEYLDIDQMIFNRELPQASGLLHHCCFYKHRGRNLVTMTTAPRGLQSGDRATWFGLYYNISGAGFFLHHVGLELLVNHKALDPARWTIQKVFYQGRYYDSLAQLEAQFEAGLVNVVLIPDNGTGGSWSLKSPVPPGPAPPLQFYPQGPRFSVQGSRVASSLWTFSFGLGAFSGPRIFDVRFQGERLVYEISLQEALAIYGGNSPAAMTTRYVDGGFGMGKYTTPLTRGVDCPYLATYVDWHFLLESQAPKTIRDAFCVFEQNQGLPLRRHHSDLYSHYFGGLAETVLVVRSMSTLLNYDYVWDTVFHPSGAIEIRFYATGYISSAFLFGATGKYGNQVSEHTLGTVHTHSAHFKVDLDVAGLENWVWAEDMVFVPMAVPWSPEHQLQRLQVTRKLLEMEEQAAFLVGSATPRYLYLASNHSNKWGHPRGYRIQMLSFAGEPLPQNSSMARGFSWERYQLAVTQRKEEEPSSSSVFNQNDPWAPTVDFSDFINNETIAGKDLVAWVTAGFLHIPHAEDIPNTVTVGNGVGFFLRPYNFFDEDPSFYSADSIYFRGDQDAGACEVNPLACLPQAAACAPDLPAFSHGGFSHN
Method in brief: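 8-point 1:3 dilutions, final DMSO <1%; 30 min enzyme preincubation, 37 °C, pH 7.4 phosphate. Start: 1 mM benzylamine + 200 uM Amplex Red + 1 U/mL HRP. Read ex544/em590 over 1-2 h; % rate decrease vs DMSO control, 4-parameter logistic IC50.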

[2] = target: T3, recombinant human MAO-B (monoamine oxidase-B) (Homo sapiens, UniProt P27338); test: Activity on recombinant human MAO-B, method similar to the VAP-1 assay; settings: substrate 1 mM benzylamine; read-out: Inhibitory Activity (IC50, nM) MAO-B
T3 construct: purchased Sigma-Aldrich
T3 sequence (P27338 1-520): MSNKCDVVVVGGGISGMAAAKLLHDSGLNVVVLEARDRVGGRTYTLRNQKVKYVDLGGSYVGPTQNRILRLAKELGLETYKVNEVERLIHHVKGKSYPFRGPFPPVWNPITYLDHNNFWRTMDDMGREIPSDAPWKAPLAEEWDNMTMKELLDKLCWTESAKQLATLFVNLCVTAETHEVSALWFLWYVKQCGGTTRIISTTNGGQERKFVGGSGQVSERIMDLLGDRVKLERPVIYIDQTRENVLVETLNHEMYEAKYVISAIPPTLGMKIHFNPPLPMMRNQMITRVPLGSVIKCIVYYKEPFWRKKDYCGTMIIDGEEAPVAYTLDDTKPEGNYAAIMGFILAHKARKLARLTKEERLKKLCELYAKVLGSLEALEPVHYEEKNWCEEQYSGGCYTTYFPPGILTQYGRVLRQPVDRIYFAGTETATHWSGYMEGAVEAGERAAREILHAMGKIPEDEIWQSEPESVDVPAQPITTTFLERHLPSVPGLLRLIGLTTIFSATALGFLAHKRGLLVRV
Method in brief: (§1)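 HRP-coupled Amplex Red H2O2 assay, 50 mM sodium phosphate pH 7.4; compounds (8-point 1:3 series, final DMSO <1%) preincubated with enzyme 30 min at 37° C, then 200 uM Amplex Red, 1 U/mL HRP and substrate (MAO-A 0.5 mM tyramine; MAO-B 1 mM benzylamine) added. Resorufin fluorescence (ex 544/em 590 nm) read over 1-2 h; IC50 from four-parameter logistic fit.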

[3] = target: T4, recombinant human MAO-A (monoamine oxidase-A) (Homo sapiens, UniProt P21397); test: Activity on recombinant human MAO-A, method similar to the VAP-1 assay; settings: substrate 0.5 mM tyramine; read-out: Inhibitory Activity (IC50, nM) MAO-A
T4 construct: purchased Sigma-Aldrich
T4 sequence (P21397 1-527): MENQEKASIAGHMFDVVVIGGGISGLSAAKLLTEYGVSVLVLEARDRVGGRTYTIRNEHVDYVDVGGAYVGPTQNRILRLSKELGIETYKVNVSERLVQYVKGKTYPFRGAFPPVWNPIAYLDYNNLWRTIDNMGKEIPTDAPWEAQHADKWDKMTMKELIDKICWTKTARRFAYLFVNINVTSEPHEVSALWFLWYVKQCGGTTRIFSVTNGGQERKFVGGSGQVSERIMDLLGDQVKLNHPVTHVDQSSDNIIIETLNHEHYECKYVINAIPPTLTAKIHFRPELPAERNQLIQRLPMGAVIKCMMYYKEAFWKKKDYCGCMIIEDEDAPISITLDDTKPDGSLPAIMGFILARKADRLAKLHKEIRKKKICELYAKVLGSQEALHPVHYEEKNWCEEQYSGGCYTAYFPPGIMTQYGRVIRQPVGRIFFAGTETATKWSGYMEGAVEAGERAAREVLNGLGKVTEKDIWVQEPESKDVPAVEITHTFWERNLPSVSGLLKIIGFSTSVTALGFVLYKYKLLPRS
Method in brief: as §1

Row | Compound | IC50 [1] | IC50 (recombinant human VAP-1) | IC50 [2] | IC50 [3]
1 | NC/C(=C\F)Cn1ncn(Cc2ccc(-c3ccc4c(c3)CCC(=O)N4)s2)c1=O [Example 75, 6-[5-(1-[(2E)-2-(aminomethyl)-3-fluoroprop-2-en-1-yl]-5-oxo-1,5-dihydro-4H-1,2,4-triazol-4-ylmethyl)thiophen-2-yl]-3,4-dihydroquinolin-2(1H)-one hydrochloride] | 950 nM | 0.3 nM | 2600 nM | > 100000 nM
2 | Cn1cc(C#Cc2ccc(Cn3cnn(C/C(=C/F)CN)c3=O)s2)cn1 [Example 131, 2-[(2E)-2-(aminomethyl)-3-fluoroprop-2-en-1-yl]-4-(5-[(1-methyl-1H-pyrazol-4-yl)ethynyl]thiophen-2-ylmethyl)-2,4-dihydro-3H-1,2,4-triazol-3-one hydrochloride] | 1300 nM | 2.3 nM | 240 nM | > 100000 nM
3 | NC/C(=C\F)Cn1ncn(Cc2ccc(-c3ccc(S(=O)(=O)N4CCOCC4)cc3)s2)c1=O [Example 29, 2-[(2E)-2-(aminomethyl)-3-fluoroprop-2-en-1-yl]-4-(5-[4-(morpholin-4-ylsulfonyl)phenyl]thiophen-2-ylmethyl)-2,4-dihydro-3H-1,2,4-triazol-3-one hydrochloride] | 150 nM | 1.4 nM | > 10000 nM | > 100000 nM
4 | NC/C(=C\F)Cn1ncn(Cc2ccc(Br)s2)c1=O [Example 2, 2-[(2E)-2-(aminomethyl)-3-fluoroprop-2-en-1-yl]-4-[(5-bromothiophen-2-yl)methyl]-2,4-dihydro-3H-1,2,4-triazol-3-one hydrochloride] | 3300 nM | 5.2 nM | 14 nM | > 100000 nM
5 | NC/C(=C/F)Cn1ncn(Cc2ccc(-c3ccc4nonc4c3)s2)c1=O [Example 61, 2-[(2Z)-2-(aminomethyl)-3-fluoroprop-2-en-1-yl]-4-[5-(2,1,3-benzooxadiazol-5-yl)thiophen-2-yl]methyl-2,4-dihydro-3H-1,2,4-triazol-3-one hydrochloride] | < 100 nM | 1.1 nM | 10.1 nM | 16000 nM
6 | COC(=O)c1ccc(-c2ccc(Cn3cnn(C/C(=C/F)CN)c3=O)s2)cc1F [Example 12, methyl 4-[5-(1-[(2E)-2-(aminomethyl)-3-fluoroprop-2-en-1-yl]-5-oxo-1,5-dihydro-4H-1,2,4-triazol-4-ylmethyl)thiophen-2-yl]-2-fluorobenzoate hydrochloride] | 200 nM | 1.8 nM | 110 nM | > 100000 nM
7 | N#Cc1ccc(-c2ccc(Cn3cnn(C/C(=C/F)CN)c3=O)s2)cn1 [Example 50, 5-[5-(1-[(2E)-2-(aminomethyl)-3-fluoroprop-2-en-1-yl]-5-oxo-1,5-dihydro-4H-1,2,4-triazol-4-ylmethyl)thiophen-2-yl]pyridine-2-carbonitrile hydrochloride] | 360 nM | 0.5 nM | 3700 nM | > 100000 nM

Further lines, results first:

Row | IC50 [1] | IC50 (recombinant human VAP-1) | IC50 [2] | IC50 [3] | Compound
8 | 1000 nM | 1.9 nM | 7900 nM | 49000 nM | CN1C(=O)CCc2cc(-c3ccc4sc(Cn5cnn(C/C(=C/F)CN)c5=O)cc4c3)ccc21 [Example 211, 6-[2-({1-[(2E)-2-(aminomethyl)-3-fluoroprop-2-en-1-yl]-5-oxo-1,5-dihydro-4H-1,2,4-triazol-4-yl}methyl)-1-benzothiophen-5-yl]-1-methyl-3,4-dihydroquinolin-2(1H)-one]
9 | 130 nM | 1.1 nM | 1500 nM | > 100000 nM | NC/C(=C\F)Cn1ncn(Cc2ccc(-c3ccc(=O)n(Cc4ccccc4)c3)s2)c1=O [Example 191, 5-[5-({1-[(2E)-2-(aminomethyl)-3-fluoroprop-2-en-1-yl]-5-oxo-1,5-dihydro-4H-1,2,4-triazol-4-yl}methyl)thiophen-2-yl]-1-benzylpyridin-2(1H)-one]
10 | 1300 nM | 4.2 nM | 28 nM | > 100000 nM | Cn1nccc1-c1ccc(Cn2cnn(C/C(=C/F)CN)c2=O)s1 [Example 156, 2-[(2E)-2-(aminomethyl)-3-fluoroprop-2-en-1-yl]-4-{[5-(1-methyl-1H-pyrazol-5-yl)thiophen-2-yl]methyl}-2,4-dihydro-3H-1,2,4-triazol-3-one]
11 | 1300 nM | 0.4 nM | 3900 nM | > 100000 nM | NC/C(=C\F)Cn1ncn(Cc2ccc(-c3cc4c(cc3F)NC(=O)CC4)s2)c1=O [Example 146, 6-[5-({1-[(2E)-2-(aminomethyl)-3-fluoroprop-2-en-1-yl]-5-oxo-1,5-dihydro-4H-1,2,4-triazol-4-yl}methyl)thiophen-2-yl]-7-fluoro-3,4-dihydroquinolin-2(1H)-one]
12 | 5300 nM | 7.5 nM | 2.8 nM | > 100000 nM | Cc1cscc1-c1ccc(Cn2cnn(C/C(=C/F)CN)c2=O)s1 [Example 165, 2-[(2E)-2-(aminomethyl)-3-fluoroprop-2-en-1-yl]-4-[(4′-methyl-2,3′-bithiophen-5-yl)methyl]-2,4-dihydro-3H-1,2,4-triazol-3-one]
